Laboratory results from patent publication US20250340532A1, “HETEROCYCLIC COMPOUND CCR4 INHIBITOR AND USER THEREOF” (Xizang Haisco Pharmaceutical Co., Ltd., priority 2022, published 2025).

Legend:
[1] = Pharmacokinetic test in rats; assay type: in vivo, SD rats; conditions: for AUC / clearance / Vd: male, SD, rat, plasma; for Vd: read-out: Vdss
Experimental: 1.1 Experimental animals: male SD rats, about 220 g, 6-8 weeks old, 6 rats/compound. Purchased from Chengdu Ddossy Experimental Animals Co., Ltd.
1.2 Experimental design: on the day of the experiment, 36 SD rats were randomly grouped according to their body weights. The animals were fasted with water available for 12 to 14 h one day before the administration and were fed 4 h after the administration.
(§1) Before and after the administration, 0.15 ml of blood was taken from the orbit of the animals under isoflurane anesthesia and placed in an EDTAK2 centrifuge tube. The blood was centrifuged at 5000 rpm and 4° C. for 10 min to collect plasma. The blood collection time points for the intravenous administration group and intragastric administration group were: 0, 5 min, 15 min, 30 min, 1 h, 2 h, 4 h, 6 h, 8 h and 24 h. Before analysis and detection, all samples were stored at −80° C., and a quantitative analysis of samples was performed using LC-MS/MS.

[2] = Pharmacokinetic test in mice; assay type: in vivo, C57 mice; conditions: for AUC(0-t) / clearance / Vd: male, C57, mouse, plasma; for Vd: read-out: Vdss
Experimental: 1.1 Experimental animals: Male C57 mice, 20-25 g, 6 mice/compound. Purchased from Chengdu Ddossy Experimental Animals Co., Ltd.
1.2 Experimental design: On the day of the experiment, 24 C57 mice were randomly grouped according to their body weight. The animals were fasted with water available for 12 to 14 h one day before the administration and were fed 4 h after the administration.
as §1, with “0.06 mL” for “0.15 ml”, “intravenous” for “intravenous administration”, “0 min,” for “0,”, “7” for “6 h, 8”

[3] = Pharmacokinetic test in monkeys; assay type: in vivo, cynomolgus monkeys; conditions: for AUC(0-t) / clearance / Vd: male, cynomolgus monkey, plasma; for Vd: read-out: Vdss
Experimental: Experimental animals: Male cynomolgus monkeys, 3-5 kg, 3-6 years old, 4 monkeys/compound. purchased from Suzhou Xishan Biotechnology Inc.
Experimental method: On the day of the experiment, 8 monkeys were randomly grouped according to their body weights. The animals were fasted with water available for 14 to 18 h one day before the administration, and were fed 4 h after the administration.
Before and after the administration, 1.0 mL of blood samples were drawn from the limb veins and placed in an EDTAK2 centrifuge tube. Centrifugation was carried out at 5000 rpm at 4° C. for 10 min, and the plasma was collected. The blood collection time points for the intravenous group and intragastric administration group were: 0 min, 5 min, 15 min, 30 min, 1 h, 2 h, 4 h, 6 h, 8 h, 10 h, 12 h, 24 h, and 48 h. Before analysis and detection, all samples were stored at −80° C., and a quantitative analysis of samples was performed using LC-MS/MS.

CCR4 = target: T1, CCR4 (Homo sapiens, UniProt P51679); assay: Calcium flow detected by FLIPR; assay type: cell-based; conditions: CCR4/HEK293 cells, agonist CCL17, Fluo-4 calcium signal
T1 construct: expressed in transfected cells; host or cells: HEK293
T1 sequence (P51679 1-360): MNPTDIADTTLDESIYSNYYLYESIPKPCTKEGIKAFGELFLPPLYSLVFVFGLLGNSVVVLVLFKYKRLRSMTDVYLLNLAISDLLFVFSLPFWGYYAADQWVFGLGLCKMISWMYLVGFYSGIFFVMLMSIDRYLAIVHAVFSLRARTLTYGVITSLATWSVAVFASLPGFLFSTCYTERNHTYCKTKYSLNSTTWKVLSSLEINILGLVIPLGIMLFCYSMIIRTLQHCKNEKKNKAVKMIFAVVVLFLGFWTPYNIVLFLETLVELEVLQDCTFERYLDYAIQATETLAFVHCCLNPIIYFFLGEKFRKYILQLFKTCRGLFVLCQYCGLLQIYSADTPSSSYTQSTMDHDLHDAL
Experimental: CCR4/HEK293 cells were added to a 384-well cell culture plate (Greiner #781946) at a rate of 20 μL/well (20,000 cells/well) and incubated overnight in a 37° C., 5% CO2 incubator (Incubator, Thermo). On the second day, the 384-well cell culture plate was taken out of the incubator and the culture medium was removed; Then, 20 μL of detection buffer and 20 μL of 2X Fluo-4 Direct™ (Invitrogen, Cat #F10471) were added. Then, compounds were added at 10 μL/well (compounds were subjected to 4-fold serial dilution, and the highest detection concentration was 10 μM), and the cells were incubated in a 37° C., 5% CO2 incubator for 50 min, and then incubated at room temperature for 10 min. The 384-well culture plate was placed in FLIPR ([…]), 10 μL of 6X agonist CCL17 was added by using an automatic loader, and the fluorescence signal was read immediately. The mean and standard error (Mean±SEM) were statistically analyzed using Graphpad Prism software, and the IC50 value was calculated.
The experimental results are shown in Table 3, where A represents IC50<100 nm; B represents 100 nM≤IC50<500 nM, and C represents 500 nM≤IC50.

[4] = Pharmacokinetic test in beagle dogs; assay type: in vivo; conditions: for AUC(0-t) / clearance / Vd: male, beagle, dog, plasma; for Vd: read-out: Vdss
Experimental: Experimental animals: male beagle dogs, about 8-11 kg, 6 beagle dogs/compound, purchased from Beijing Marshall Biotechnology Co., Ltd.
Experimental method: On the day of the experiment, 18 beagle dogs were randomly grouped according to their body weights. The animals were fasted with water available for 12 to 14 h one day before the administration and were fed 4 h after the administration.
Before and after the administration, 1 ml of blood was taken from the jugular veins or limb veins, and placed in an EDTAK2 centrifuge tube. Centrifugation was performed at 5000 rpm at 4° C. for 10 min, and plasma was collected. The blood collection time points for the intravenous group and intragastric administration group were: 0 min, 5 min, 15 min, 30 min, 1 h, 2 h, 4 h, 6 h, 8 h, 10 h, 12 h, 24 h, 48 h, and 72 h. Before analysis and detection, all samples were stored at −80° C. The samples were analyzed quantitatively by LC-MS/MS.

Structure (SMILES): C[C@@H](Nc1cc(N2CC(C3CN(C4CC(C)(C(=O)O)C4)CCO3)C2)ccc1Cl)c1ccc(Cl)cc1Cl (single isomer, unassigned) [Compound 83 isomer 1]
- F ([1]; i.g. 10 mg/kg): >98%
- AUC ([1]; iv, i.v. 2.5 mg/kg): 7320 ± 1280 ng·h/mL
- clearance ([1]; iv, i.v. 2.5 mg/kg): 5.53 ± 1 mL/min/kg
- Vd ([1]; iv, i.v. 2.5 mg/kg): 2.25 ± 0.27 L/kg
- AUC ([1]; po, i.g. 10 mg/kg): 37000 ± 2820 ng·h/mL
- F ([2]; i.g. 10 mg/kg): 91.6 ± 12%
- AUC(0-t) ([2]; iv, i.v. 2.5 mg/kg): 7250 ± 726 ng·h/mL
- clearance ([2]; iv, i.v. 2.5 mg/kg): 5.69 ± 0.6 mL/min/kg
- Vd ([2]; iv, i.v. 2.5 mg/kg): 1.77 ± 0.069 L/kg
- AUC(0-t) ([2]; po, i.g. 10 mg/kg): 26600 ± 3520 ng·h/mL
- F ([3]; i.g. 5 mg/kg): 76.8 ± 27%
- AUC(0-t) ([3]; iv, i.v. 1 mg/kg): 15800 ± 1740 ng·h/mL
- clearance ([3]; iv, i.v. 1 mg/kg): 1.02 ± 0.14 mL/min/kg
- Vd ([3]; iv, i.v. 1 mg/kg): 0.754 ± 0.15 L/kg
- AUC(0-t) ([3]; po, i.g. 5 mg/kg): 60700 ± 21600 ng·h/mL
- IC50 (CCR4): < 100 nM

Structure (SMILES): Cc1nc(N2CCC(C3CN(C4CC(C)(C(=O)O)C4)CCO3)CC2)nc(NC(C)c2ccc(Cl)cc2Cl)c1Cl (single isomer, unassigned) [Compound 73 isomer 3]
- F ([1]; i.g. 10 mg/kg): 80.3 ± 34%
- AUC ([1]; iv, i.v. 2.5 mg/kg): 4630 ± 1030 ng·h/mL
- clearance ([1]; iv, i.v. 2.5 mg/kg): 9.19 ± 2.1 mL/min/kg
- Vd ([1]; iv, i.v. 2.5 mg/kg): 1.55 ± 0.091 L/kg
- AUC ([1]; po, i.g. 10 mg/kg): 14900 ± 6380 ng·h/mL
- F ([4]; i.g. 3 mg/kg): >98%
- AUC(0-t) ([4]; iv, i.v. 1 mg/kg): 12100 ± 3170 ng·h/mL
- clearance ([4]; iv, i.v. 1 mg/kg): 1.38 ± 0.4 mL/min/kg
- Vd ([4]; iv, i.v. 1 mg/kg): 1.2 ± 0.16 L/kg
- AUC(0-t) ([4]; po, i.g. 3 mg/kg): 37700 ± 10100 ng·h/mL
- F ([2]; i.g. 10 mg/kg): 90.4 ± 14%
- AUC(0-t) ([2]; iv, i.v. 2.5 mg/kg): 7400 ± 385 ng·h/mL
- clearance ([2]; iv, i.v. 2.5 mg/kg): 5.62 ± 0.29 mL/min/kg
- Vd ([2]; iv, i.v. 2.5 mg/kg): 1.04 ± 0.055 L/kg
- AUC(0-t) ([2]; po, i.g. 10 mg/kg): 26800 ± 4110 ng·h/mL
- IC50 (CCR4): < 100 nM

Structure (SMILES): Cc1nc(N2CC(C3CN(C4CC(C)(C(=O)O)C4)CCO3)C2)nc(NC(C)c2ccc(Cl)cc2Cl)c1Cl (single isomer, unassigned) [Compound 9 isomer 3]
- F ([1]; i.g. 10 mg/kg): 98.7 ± 19%
- AUC ([1]; iv, i.v. 2.5 mg/kg): 6280 ± 402 ng·h/mL
- clearance ([1]; iv, i.v. 2.5 mg/kg): 6.61 ± 0.42 mL/min/kg
- Vd ([1]; iv, i.v. 2.5 mg/kg): 1.49 ± 0.13 L/kg
- AUC ([1]; po, i.g. 10 mg/kg): 24800 ± 4810 ng·h/mL
- F ([3]; i.g. 5 mg/kg): 72.8 ± 57%
- AUC(0-t) ([3]; iv, i.v. 1 mg/kg): 6930 ± 1440 ng·h/mL
- clearance ([3]; iv, i.v. 1 mg/kg): 2.44 ± 0.51 mL/min/kg
- Vd ([3]; iv, i.v. 1 mg/kg): 0.995 ± 0.088 L/kg
- AUC(0-t) ([3]; po, i.g. 5 mg/kg): 25200 ± 19900 ng·h/mL
- IC50 (CCR4): < 100 nM

Structure (SMILES): CC(Nc1cc(N2CCC(C3CN(C4CC(C)(C(=O)O)C4)CCO3)CC2)ccc1Cl)c1ccc(Cl)cc1Cl (single isomer, unassigned) [Compound 82 isomer 3]
- F ([4]; i.g. 3 mg/kg): >98%
- AUC(0-t) ([4]; iv, i.v. 1 mg/kg): 21100 ± 3840 ng·h/mL
- clearance ([4]; iv, i.v. 1 mg/kg): 0.672 ± 0.14 mL/min/kg
- Vd ([4]; iv, i.v. 1 mg/kg): 1.04 ± 0.2 L/kg
- AUC(0-t) ([4]; po, i.g. 3 mg/kg): 68400 ± 7190 ng·h/mL
- IC50 (CCR4): < 100 nM
